Measured values published in article PMC12265377, “CC48 a new CB2R agonist/FAAH inhibitor dual drug blocks gastric cancer progression and overcomes paclitaxel resistance” (Journal of Experimental & Clinical Cancer Research : CR, 2025).

Key:
FAAH Human recombinant = target: T1, FAAH Human recombinant (Homo sapiens, UniProt O00519); assay: FAAH inhibition assay; assay type: biochemical; details: ± SEM, substrate AMC-AA 1 µM
T1 construct: purchased Cayman Chemical
T1 sequence (O00519 1-579): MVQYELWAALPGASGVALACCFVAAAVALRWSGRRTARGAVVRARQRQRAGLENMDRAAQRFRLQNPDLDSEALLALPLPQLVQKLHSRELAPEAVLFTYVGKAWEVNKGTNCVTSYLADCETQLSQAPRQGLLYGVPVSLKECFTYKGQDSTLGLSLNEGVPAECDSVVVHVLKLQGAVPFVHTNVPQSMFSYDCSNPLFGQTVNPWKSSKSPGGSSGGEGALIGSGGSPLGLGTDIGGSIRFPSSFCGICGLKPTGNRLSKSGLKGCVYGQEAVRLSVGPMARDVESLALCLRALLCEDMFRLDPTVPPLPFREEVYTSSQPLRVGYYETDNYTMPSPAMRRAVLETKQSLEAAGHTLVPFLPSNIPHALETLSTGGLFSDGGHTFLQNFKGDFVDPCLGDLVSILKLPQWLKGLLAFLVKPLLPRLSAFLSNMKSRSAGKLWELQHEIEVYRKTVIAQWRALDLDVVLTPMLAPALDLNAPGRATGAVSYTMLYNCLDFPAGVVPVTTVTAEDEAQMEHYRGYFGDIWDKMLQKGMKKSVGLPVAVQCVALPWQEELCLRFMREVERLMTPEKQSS
Procedure: Assays were performed using 96-well black flat-bottom microtiter NBS plates (COSTAR flat black). […] The substrate (7-amino-4-methyl-2 H-1-benzopyran-2-one-5Z,8Z,11Z,14Z-eicosatetraen-amide, AMC-AA, 1µM final concentration) was then added, and the assay was incubated for 2 h at 37 °C in a TECAN infinite M1000Pro plate reader (Tecan, Männedorf, Switzerland) which measured the fluorescence from each well every 30 s (λex = 340 nm, λem = 450 nm), determining FAAH activity as relative fluorescence units (RFU). Control wells lacking the inhibitor and blank wells lacking both inhibitor and enzyme were used to calculate the percent inhibition for each tested compound. IC50 values were calculated via GraphPad Prism 5.0 (GraphPad Software, La Jolla, CA, USA) and are reported as mean ± SEM of at least three independent measurements performed in triplicate.

HGC27-R cells [1] = assay: ROS determination assay (DCF-DA); assay type: cell-based, human; details: 1 µM, 48 h, vs untreated cells
Procedure: (§1) For ROS analysis the procedure described in [26] was adapted. […] After the incubation, all the samples were incubated for 30 minutes at 37°C in the dark with 50 µM 2’,7’-dichlorofluorescein diacetate, DCF-DA.
(§2) Cells were then washed, detached with trypsin/EDTA solution, centrifuged at 12,000 g for 10 min and re-suspended in1mL PBS. At least 10.000 total events were acquired using an Attune Nxt Acoustic Focusing Cytometer (Life Technologies Corporation) equipped with a blue laser (488 nm). Analysis was performed and data were visualized using Attune™ NxT v2.6 Software. The percentage of green fluorescent cells and the green fluorescence median were measured on a mono-parametric histogram based on DCF-DA fluorescence.

HGC27-S cells [2] = assay: ROS determination assay (DCF-DA); assay type: cell-based, human; details: 1 µM, 48 h, vs untreated cells
Procedure: as §1, §2

AGS cells [3] = assay: Muse Annexin V apoptosis assay; assay type: cell-based, human; details: 48 h, 6 µM AM630, 10 µM others
Description: (§3) After the specified drug treatments, the cells were processed using the Muse Annexin V/Dead Cell Assay Kit (Luminex Corporation, Austin, USA) for quantitative analysis of live, early/ late apoptotic, and dead cells on a Muse Cell Analyzer. Briefly, the assay utilized Annexin V to detect phosphatidylserine on the external membrane of apoptotic cells. The fluorescent signal emitted by dye-conjugated antibodies was detected by flow cytometry technology (Muse Cell Analyzer, Luminex Corporation, Austin, USA). 7-Amino-Actinomycin D (7-AAD) dead cell marker was also used. The cells were then analyzed according to the user’s guide. […] After 48 h treatments the cells were processed according to the user’s guide and analyzed with the Muse caspase-3/7 kit (Millipore).The assay provides the relative percentage of living, early/late apoptotic or dead cells.

HGC27-S cells [4] = assay: Muse Annexin V apoptosis assay; assay type: cell-based, human; details: 48 h, 6 µM AM630, 10 µM others
Description: as §3

[5] = system: HGC27-S/R and AGS cell lines; assay: VEGFA in cell culture medium (ELISA), all lines; assay type: cell-based, human; details: all the cell lines investigated, 48 h
Procedure: (§4) The amount of VEGFA secreted in the culture medium by HGC27-S/R and AGS treated cells was measured using a highly sensitive Enzyme-Linked Immunosorbent Assay (ELISA), Quantikine Kit ELISA (R&D Systems, Minneapolis, MN, USA), according to the manufacturer’s instructions. The measured values were normalized to the number of cells.

AGS cells [6] = assay: VEGFA in cell culture medium (ELISA); assay type: cell-based, human; details: 10 µM, 48 h, untreated 8.3
Procedure: as §4

HGC27-R cells [7] = assay: VEGFA in cell culture medium (ELISA); assay type: cell-based, human; details: 10 µM, 48 h, untreated 10.5
Procedure: as §4

CB1R = details: cited from earlier work
NCI-N87_LUC cell line = assay: Ki67 immunohistochemistry of tumor explants; assay type: in vivo, CD1-nude female mice; details: GP2/GP3 (10 and 20 mg/kg); vehicle 35%
Procedure: Tissue blocks fixed in formalin and embedded in paraffin were obtained from the explants of the tumor masses of each specimen. Sections stained with hematoxylin and eosin (H&E) were reviewed by a pathologist to confirm the adequacy of the sample, and to evaluate the morphologic and/or pathological characteristics of each sample. […] IHC analysis was carried out in sections after deparaffinization for 30 min and then rehydration in grades of alcohol. Antigen retrieval was performed at 90 °C for 20 min with Tris-borate-EDTA Buffer. To assess the Ki67, IHC was again carried out on all cases on paraffin-embedded sections using an anti-Ki67 Ab diluted 1:100 (Mib-1; DAKO) following the manufacturer’s instructions.

[8] = Body weight, serum biochemistry and urinalysis in treated mice; details: GP2 and GP3 (10 and 20 mg/kg)
Procedure: All the animals were fed ad libitum with complete mouse feed, and water was provided ad libitum. The body weight for each animal was recorded weekly, starting from day 0 until the end of the study.
Physical observations of health status, including visual checks on the mice general appearance (e.g. fur and activity levels/responsiveness), were made daily. On day 45, the animals were individually housed in metabolic cages for 24 h, with free access to water and food, in order to perform urine collection and urinalysis. Immediately before metabolic cage housing, animals were subjected to a water load (10 mL/kg by oral gavage) in order to allow urine volume normalization. In addition, blood samples were taken from the submandibular vein after isoflurane anesthesia and before sacrifice at the end of the study period. The blood was collected in Eppendorf tubes and then centrifuged at about 8,000 rpm for 15 min at 4 °C for serum collection.

Row | SMILES | FAAHi IC50 (FAAH Human recombinant) | IC50 (FAAH Human recombinant; read-out: FAAHi IC50) [µM] | ROS production (HGC27-R cells [1]) | intracellular ROS production (HGC27-S cells [2]) | increase in apoptotic cells compared to untreated cells (Annexin V) (AGS cells [3]) [fold] | increase in apoptotic cells compared to untreated cells (Annexin V) (HGC27-S cells [4]) [fold] | VEGFA secretion in culture medium (in words) [5] | VEGFA secretion in culture medium (AGS cells [6]) [pg/mL/cell] | VEGFA secretion in culture medium (HGC27-R cells [7]) [pg/mL/cell] | CB1R affinity % at 1µM (percentage of displacement at 1 µM) (CB1R; 1 µM) [%^23] | percentage of Ki67-stained nuclei in tumor (NCI-N87_LUC cell line) | Ki (CB1R; ± SEM, read-out: CB1R affinity Ki) [µM] | body weight vs vehicle [8] | serum AST, ALT, Cre, UREA and GFR vs vehicle [8]
1 | COc1ccc(C(=O)c2c(C)n(CCN3CCOCC3)c3cc(I)ccc23)cc1 [AM630, reference compound] | low FAAH inhibition activity | 20 ± 2.8 | induced an increase in ROS production | significant increase in intracellular ROS production | 8 | 8 | increase in VEGFA secretion |  |  |  |  |  |  | 
2 | CCCCCNc1ccccc1C(=O)NC12CC3CC(CC(C3)C1)C2 [ASF151] |  |  | induced an increase in ROS production |  |  |  |  | 4.4 | 8 | 31 |  |  |  | 
3 | O=C(NC12CC3CC(CC(C3)C1)C2)c1ccccc1OCc1ccccc1 [CC48] |  |  |  | significant increase in intracellular ROS production | 6 | 2 |  | 5.8 | 6.5 |  | 15–20% | 0.2413 ± 0.0024 | No statistically significant differences were observed | No statistically significant differences in biochemical results
